These results are taken from ChEMBL document CHEMBL1139019, “Tricyclic azepine derivatives: pyrimido[4,5-b]-1,4-benzoxazepines as a novel class of epidermal growth factor receptor kinase inhibitors” (Bioorg Med Chem Lett, 2006).

Test [1] deals with T1, Epidermal growth factor receptor (Homo sapiens, UniProt P00533). Briefly: Inhibition of EGFR autophosphorylation in DiFi cells.
The target in test [2] is T1, Epidermal growth factor receptor.

T1 sequence (P00533 whole entry): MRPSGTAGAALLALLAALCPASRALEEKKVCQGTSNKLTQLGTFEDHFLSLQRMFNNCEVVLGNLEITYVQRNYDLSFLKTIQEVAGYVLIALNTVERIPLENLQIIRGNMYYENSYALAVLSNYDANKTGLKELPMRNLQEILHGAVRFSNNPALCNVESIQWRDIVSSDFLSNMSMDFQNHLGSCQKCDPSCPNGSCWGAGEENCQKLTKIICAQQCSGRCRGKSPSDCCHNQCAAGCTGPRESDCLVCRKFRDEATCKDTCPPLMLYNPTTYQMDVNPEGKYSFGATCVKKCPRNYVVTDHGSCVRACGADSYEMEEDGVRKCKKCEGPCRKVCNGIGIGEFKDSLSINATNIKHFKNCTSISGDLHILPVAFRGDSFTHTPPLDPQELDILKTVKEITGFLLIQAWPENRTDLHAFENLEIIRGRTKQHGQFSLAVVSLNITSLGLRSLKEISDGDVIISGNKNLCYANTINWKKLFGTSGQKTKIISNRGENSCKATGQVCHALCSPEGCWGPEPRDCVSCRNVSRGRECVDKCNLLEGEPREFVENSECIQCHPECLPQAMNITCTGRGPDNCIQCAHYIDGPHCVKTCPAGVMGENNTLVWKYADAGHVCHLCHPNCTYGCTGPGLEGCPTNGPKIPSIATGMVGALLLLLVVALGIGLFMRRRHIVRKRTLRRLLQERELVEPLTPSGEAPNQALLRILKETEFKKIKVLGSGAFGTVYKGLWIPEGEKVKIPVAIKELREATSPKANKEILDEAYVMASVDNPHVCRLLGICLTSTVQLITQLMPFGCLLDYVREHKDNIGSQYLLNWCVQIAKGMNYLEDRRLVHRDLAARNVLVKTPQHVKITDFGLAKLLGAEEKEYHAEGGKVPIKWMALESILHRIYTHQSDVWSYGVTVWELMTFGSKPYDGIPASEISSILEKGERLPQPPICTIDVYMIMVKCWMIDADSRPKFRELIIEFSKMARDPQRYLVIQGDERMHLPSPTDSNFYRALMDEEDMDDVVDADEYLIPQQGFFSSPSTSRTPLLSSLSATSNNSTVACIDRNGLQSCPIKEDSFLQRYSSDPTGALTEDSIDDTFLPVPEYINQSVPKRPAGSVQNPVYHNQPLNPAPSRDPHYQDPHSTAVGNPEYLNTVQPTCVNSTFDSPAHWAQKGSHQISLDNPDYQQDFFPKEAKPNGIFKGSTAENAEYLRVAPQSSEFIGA

Turning to `O=C(O)c1ccc2c(c1)CNc1c(Nc3cccc(Br)c3)ncnc1O2`, the values for the IC50 in test [1] and in test [2] were above 30 µM and 1 µM, respectively.

Consider `C=CC(=O)Nc1ccc2c(c1)CNc1c(Nc3ccc(F)c(Cl)c3)ncnc1O2`, for which the IC50 worked out at 8.9 µM in test [1] and 4.9 µM in test [2].

For `Fc1ccc2c(c1)CNc1c(Nc3ccc(Cl)cc3)ncnc1O2`, the IC50 in test [2] was above 10 µM.

In the case of `Fc1ccc2c(c1)CNc1c(Nc3ccc(F)c(Cl)c3)ncnc1O2`, the concentration for half-maximal inhibition (IC50) was 7.2 µM in test [1] and 1 µM in test [2].

`COc1cccc2c1CNc1c(Nc3cccc(Br)c3)ncnc1O2` had a concentration for half-maximal inhibition (IC50) in test [2] above 10 µM.

`COc1ccc2c(c1)CNc1c(Nc3cccc(Br)c3)ncnc1O2`: the results for the half-maximal inhibitory concentration (IC50) in test [1] and in test [2] were 1 µM and 3.1 µM, respectively.

Turning to `Nc1ccc2c(c1)CNc1c(Nc3cccc(Br)c3)ncnc1O2`, the results for the IC50 in test [1] and in test [2] were above 30 µM and 1.7 µM, respectively.

Take `FC(F)(F)Oc1ccc2c(c1)CNc1c(Nc3cccc(Br)c3)ncnc1O2`: the IC50 in test [2] is above 10 µM.

Turning to `Fc1ccc(Nc2ncnc3c2NCc2cc(Cl)ccc2O3)cc1Cl`, the IC50 in test [1] came out at 4.3 µM; in test [2], 1 µM.

Regarding `COc1cc(OC)c2c(c1)Oc1ncnc(Nc3cccc(Br)c3)c1NC2`, the half-inhibitory concentration (IC50) in test [1] was above 30 µM; in test [2], 6.3 µM.

As for `COc1ccc2c(c1)Oc1ncnc(Nc3cccc(Br)c3)c1NC2`, the IC50 was 1.9 µM in test [1] and 3 µM in test [2].

On to `Brc1cccc(Nc2ncnc3c2NCc2cc(Br)ccc2O3)c1`, for which the IC50 came to 7.2 µM in test [1] and 1 µM in test [2].

As for `Clc1ccc2c(c1)CNc1c(Nc3cccc(Br)c3)ncnc1O2`, the IC50 in test [1] was above 30 µM; in test [2], 3.4 µM.

`Brc1ccc2c(c1)CNc1c(Nc3ccccc3)ncnc1O2`: the IC50 in test [2] was found to be 10 µM.

For the molecule `Fc1ccc(Nc2ncnc3c2NCc2ccccc2O3)cc1Cl`, the figures for the IC50 in test [1] and in test [2] were 2.7 µM and 1.1 µM, respectively.

`COc1ccc2c(c1)CNc1c(Nc3cccc(-c4ccccc4)c3)ncnc1O2`: the values for the IC50 in test [1] and in test [2] were 9.8 µM and above 10 µM, respectively.

Consider `Nc1ccc2c(c1)CNc1c(Nc3ccc(F)c(Cl)c3)ncnc1O2`, for which the IC50 was 9.1 µM in test [1] and 3.7 µM in test [2].

For `COc1cc2c(cc1OC)Oc1ncnc(Nc3cccc(Br)c3)c1NC2`, the half-maximal inhibitory concentration (IC50) in test [1] was 0.47 µM; in test [2], 0.34 µM.

With `CS(=O)(=O)Nc1ccc2c(c1)CNc1c(Nc3ccc(F)c(Cl)c3)ncnc1O2`, the half-maximal inhibitory concentration (IC50) in test [2] is above 10 µM.

As to `C=CC(=O)Nc1ccc2c(c1)CNc1c(Nc3cccc(Br)c3)ncnc1O2`, the IC50 in test [1] is 5.4 µM; in test [2] it was 5.7 µM.

For the molecule `O=C(O)c1ccc2c(c1)CNc1c(Nc3ccc(F)c(Cl)c3)ncnc1O2`, the figures for the IC50 in test [1] and in test [2] were above 30 µM and 4.4 µM, respectively.

Turning to `CS(=O)(=O)Nc1ccc2c(c1)CNc1c(Nc3cccc(Br)c3)ncnc1O2`, the values for the IC50 in test [1] and in test [2] were 7 µM and 4.1 µM, respectively.

`COc1ccc2c(c1)CNc1c(NCc3ccccc3)ncnc1O2`: the results for the IC50 in test [1] and in test [2] were 8.5 µM and 2 µM, respectively.

Regarding `Fc1ccc2c(c1)CNc1c(Nc3cccc(-c4ccccc4)c3)ncnc1O2`, the IC50 in test [1] is 9.9 µM; in test [2], 2 µM.

For the molecule `Fc1ccc(Nc2ncnc3c2NCc2cc(Br)ccc2O3)cc1Cl`, the IC50 came to 8.4 µM in test [1] and 2 µM in test [2].

For the molecule `COc1ccc2c(c1)Oc1ncnc(Nc3ccc(F)c(Cl)c3)c1NC2`, the IC50 in test [1] came out at 8.9 µM; in test [2], 1 µM.

`Fc1ccc2c(c1)CNc1c(Nc3cccc(Br)c3)ncnc1O2`: the IC50 in test [1] was found to be 6.9 µM; in test [2], 1.5 µM.

In turn, `COc1ccc2c(c1)CNc1c(Nc3ccccc3)ncnc1O2` registered an IC50 in test [2] of 7.5 µM.

For `COc1ccc2c(c1)CNc1c(Nc3ccc(F)c(Cl)c3)ncnc1O2`, the figures for the IC50 in test [1] and in test [2] were 2.4 µM and 0.9 µM, respectively.

On to `COc1cc2c(cc1OC)Oc1ncnc(Nc3ccc(F)c(Cl)c3)c1NC2`, for which the IC50 in test [1] came to 0.69 µM; in test [2], 1.2 µM.

In turn, `COc1ccc2c(c1)CNc1c(Nc3ccc(Cl)cc3)ncnc1O2` came in with an IC50 in test [2] of 5.8 µM.

In test [2], `Fc1ccc2c(c1)CNc1c(Nc3ccccc3)ncnc1O2` showed an IC50 of 7 µM.

As for `Fc1ccc2c(c1)CNc1c(NCc3ccccc3)ncnc1O2`, the values for the IC50 in test [1] and in test [2] were above 30 µM and 8.9 µM, respectively.

Broadly, the IC50 is the midpoint of a concentration-inhibition curve. Read a low IC50 as greater potency.
